Tests used:
[1] = biological target: T1, acyltransferase activity of AGPAT4 (Homo sapiens, UniProt Q9NRZ5, C228A); assay: LPA to PA conversion assay; assay type: biochemical; details: Huh7 cells, AGPAT4 C228A mutant
T1 construct: The open reading frame (ORF) encoding the mRNA of AGPAT4 was cloned into the pDONR-221 donor vector; expressed in transfected cells; host or cells: Huh7 (lentiviral pEZ-Lv199-AGPAT4)
T1 sequence (Q9NRZ5 1-378 C228A): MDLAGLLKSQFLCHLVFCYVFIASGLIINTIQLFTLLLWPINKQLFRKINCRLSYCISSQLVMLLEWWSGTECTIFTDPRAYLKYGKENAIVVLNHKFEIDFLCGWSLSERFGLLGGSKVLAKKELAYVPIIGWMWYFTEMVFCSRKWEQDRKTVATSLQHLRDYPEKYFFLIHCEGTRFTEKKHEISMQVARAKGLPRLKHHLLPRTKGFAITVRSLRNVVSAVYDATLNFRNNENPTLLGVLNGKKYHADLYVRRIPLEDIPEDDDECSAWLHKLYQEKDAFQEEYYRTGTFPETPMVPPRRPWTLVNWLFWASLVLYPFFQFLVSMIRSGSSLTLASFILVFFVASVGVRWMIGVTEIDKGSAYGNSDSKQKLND
Experimental: Enzyme activity was measured by quantifying the conversion of [3H]-LPA to [3H]-PA following the protocol outlined in a previous study (43). Briefly, the enzymatic reaction was prepared by combining 10 μmol/L 18:1 Lyso PA (Avanti Polar Lipids), 50 μmol/L oleoyl CoA (Sigma-Aldrich), 1 μL 1-oleoyl-[oleoyl-9,10^−3H]-LPA (specific activity 30-60 Ci/mmol; PerkinElmer), and 1 mg/mL fatty acid-free BSA in 200 μL 100 mM Tris-HCl buffer at pH 7.4. The reaction was initiated by adding 30 μg of total protein (cell lysate) and incubating the mixture at 37° C. for 10 min. To stop the reaction, 0.5 mL of 1-butanol containing 1 M HCl was added to extract phospholipids to stop the reaction. The butanol extract was then dried under vacuum, and the LPA and PA were separated using a solvent system consisting of chloroform, methanol, acetic acid, and water (25:10:3:1). Radioactive spots were identified by comparing their migration with unlabelled LPA and PA standards and visualized using iodine vapours. The spots corresponding to [3H]-LPA and [3H]-PA were scraped and their radioactivity was measured using a Tri-Carb Liquid Scintillation Counter 4810 (PerkinElmer Life Sciences).

[2] = tested on: MHCC97L and MHCC97H vs. Huh7 and LO2 cells; assay: XTT assay, viability assay and excess over bliss synergy analysis; assay type: cell-based, human; details: CL26 combined with sorafenib, 48 h
Experimental: (§1) Cells (1×10^3 cells/well) were seeded in 96-well plates and cultured in complete medium for 24 h. Subsequently, sorafenib and/or CL26 was added to the culture and incubated for 48 h. The XTT tetrazolium reagent (Gold Biotechnology) and phenazine methosulfate (Thermo Fisher Scientific) were premixed and added to each well. The absorbance at 450 nm was measured using a Victor 3 microplate reader (PerkinElimer). Drug interactions were evaluated using the bliss independence model. According to this model, the expected growth inhibition (Eexp) resulting from the combination of drugs A and B was calculated using the following equation: Eexp=Ea+Eb−Ea×Eb, with Ea representing the growth inhibition caused by drug A alone and Eb representing the growth inhibition caused by drug B alone. To assess drug interactions, the difference between the observed growth inhibition (Eobs) and expected growth inhibition (Eexp) was calculated.
(§2) 1×10^4 cells were seeded in a 6-well plate and cultured in complete medium for 24 h. Subsequently, sorafenib and/or CL26 was added to the culture and incubated for 48 h. Dead cells were carefully washed with PBS, and the remaining viable cells were fixed using 4% paraformaldehyde (Sigma-Aldrich) and visualized by staining with 2% crystal violet (Sigma-Aldrich).

[3] = tested on: sorafenib-sensitive and sorafenib-resistant HepG2 cells; assay: as above; assay type: cell-based, human; details: CL26 combined with sorafenib, 48 h
Experimental: as §1, §2

[4] = Animal toxicity studies; assay type: in vivo, C57BL/6 mice; details: 1 mg/kg or 10 mg/kg intraperitoneally
Experimental: C57BL/6 mice were administered CL26 at a low dose (1 mg/kg) or high dose (10 mg/kg) intraperitoneally to evaluate potential tissue damage associated with CL26 exposure. Major organs, including the liver, spleen, pancreas, kidney, heart, and lungs, were weighed prior to fixation in 10% formalin for subsequent paraffin embedding and H& E staining. Additionally, the serum concentrations of alanine aminotransferase (ALT) and aspartate aminotransferase (AST) were measured. The above analysis was performed at the Veterinary Diagnostic Laboratory of the City University of Hong Kong.

[5] = tested on: HCC PDX model #1 and sorafenib-resistant HCC PDX model #2
Excerpt: HCC PDX #1 were first expanded in NOD-SCID mice as described previously (21). Sorafenib-resistant HCC PDX #2 was established and expanded as described previously (29). Dissociated PDX tumors (5×10^5 cells in 100% Matrigel) were orthotopically injected into the left lobes of the livers of 6-week-old BA L B/c nude mice (n=6-10 per group). Drug administration was initiated three weeks after inoculation. The mice were then randomized for treatment with DMSO, sorafenib, 30% PET (30% PEG400/15% ethanol/5% Tween 80 in saline), or CL26 (1 mg/kg or 10 mg/kg, delivered intraperitoneally thrice per week). Seven weeks post-inoculation, tumor-bearing mice were sacrificed. The livers were harvested for histological and ex vivo limiting dilution analyses.

[6] = sorafenib orally plus CL26 intraperitoneally

O=C(CCl)NCc1ccc(-c2nc3ccccc3s2)o1 [CL26, N-[[5-(2-benzothiazolyl)-2-furanyl]methyl]-2-chloroacetamide]
LPA to PA conversion vs DMSO control [1]: did not show difference in LPA to PA conversion
synergistic effect with sorafenib (excess over bliss scores) [2]: synergistic effect was observed solely in cells with high AGPAT4-expressing MHCC97L and MHCC97H cells
synergistic effect with sorafenib [3]: exclusively observed in sorafenib-resistant HepG2 cells
blood chemistry (AST, ALT), major organ weight and histology vs control mice [4]: no significant differences
toxicity associated with treatment [4]: minimal toxicity
body weight vs control group ([5]; PDX mice treated with CL26): did not exhibit significant differences in body weight
p-mTOR levels, multiplex immunohistochemistry ([5]; PDX tumors): reduction in p-mTOR levels
self-renewal ability, ex vivo limiting dilution analysis ([5]; combination with sorafenib): decreased self-renewal ability
survival rate ([5]; combination with sorafenib, HCC PDX model #2): highest survival rate
number of tumor nodules [5, 6]: significant effect in reducing
tumor size [5, 6]: significant effect in reducing
tumor weight [5, 6]: significant effect in reducing
